We go through 2 molecules from patent US20040219186A1, “Expandable gastric retention device” (priority 2001, published 2004).

Converted amounts (≈) assume the structure as drawn. Read-outs that look alike come from different tables or passages of the source.

A short description of data set [1]: Hydrochlorothiazide 50 mg bio-study, IR versus GRD, urinary drug excretion, urine output and side effects, fasting subjects. In kind it is in vivo. As to conditions: both sexes, human, oral, HCTZ 50 mg, read-out: Elimination half-life (t1/2) (converted). As to the method: Two formulations for hydrochlorothiazide (an immediate release formulation (IR) and a gastric retention device (GRD)) containing sustained release formulations (SR) were administered in the bio-study (bioavailability study). A commercial tablet containing 50 mg of HCTZ was used as an IR control, and spray-coated beads equivalent to 50 mg of HCTZ were formulated for SR in the lab. The process of SR formulation is described above. Bio-study was performed to evaluate the bioavailability as well as pharmacodynamics of HCTZ from a GRD compared to those from an IR.
Monitoring concentrations of hydrochlorothiazide in the urine of healthy adult volunteers allowed comparison of the relative bioavailability of hydrochlorothiazide from the GRD formulation and from a conventional tablet. Participation involved at least two days for each treatment with at least 72-hours washout period between doses. An IR was given once and the GRD was repeated twice to test the reproducibility of the new dosage form, GRD. A 50 mg dose of was chosen for the study because it was in the range of the recommended dose from the PDR (Physician's Desk References) and it produced concentrations high enough to make HPLC analysis efficient. Six subjects participated in the study, 4 healthy males and 2 healthy females. […] The volume of urine collected was measured in order to calculate total amount of drug recovered. […]

The conditions of data set [2]: in vivo; cited from earlier work.
Another data set has as its system Strep. pneumococci. As to conditions: cited from earlier work.

On to `NS(=O)(=O)c1cc2c(cc1Cl)NCNS2(=O)=O` [hydrochlorothiazide], for which the half-life in data set [1] was approximately 420 min.
Consider `CC1(C)S[C@@H]2[C@H](NC(=O)[C@H](N)c3ccc(O)cc3)C(=O)N2[C@H]1C(=O)O` [Amoxicillin], for which the half-life result in data set [2] is given as “about 1 hour”. In the data set with Strep. pneumococci, the MIC was 0.02 µg/mL (≈ 0.0547 µM).
